Source: patent publication US12209087B2, “AKT1 modulators” (Alterome Therapeutics, Inc., priority 2022, dated 2025)

Target: T1, full length AKT E17K (Homo sapiens, UniProt P31749, E17K)
T1 construct: host or cells: HEK-293 (ATCC CRL-1573)
Experiment: NanoBRET Target Engagement (TE) Assay
Format: cell-based
Conditions: competitive displacement of tracer in cells, read-out: AKT1 E17K IC50
Outline: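 Compound and tracer incubated 2 h before luminescence at donor 450 nm and acceptor 600 nm, with extracellular signal inhibited. EC50 by sigmoidal variable-slope regression.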

T1 sequence (P31749 whole entry E17K): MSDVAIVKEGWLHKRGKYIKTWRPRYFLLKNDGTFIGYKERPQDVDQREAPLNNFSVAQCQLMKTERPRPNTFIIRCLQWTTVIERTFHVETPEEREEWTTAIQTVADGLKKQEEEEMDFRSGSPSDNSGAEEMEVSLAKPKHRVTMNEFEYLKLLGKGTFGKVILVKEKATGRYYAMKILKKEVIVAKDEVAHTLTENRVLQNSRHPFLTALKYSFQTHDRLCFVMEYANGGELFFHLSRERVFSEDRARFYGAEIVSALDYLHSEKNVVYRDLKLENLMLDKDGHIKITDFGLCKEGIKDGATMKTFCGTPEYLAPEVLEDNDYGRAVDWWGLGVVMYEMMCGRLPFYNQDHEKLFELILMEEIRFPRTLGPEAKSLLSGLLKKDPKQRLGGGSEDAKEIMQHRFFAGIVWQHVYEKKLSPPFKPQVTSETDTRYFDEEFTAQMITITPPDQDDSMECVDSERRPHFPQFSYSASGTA

| SMILES | IC50 |
| --- | --- |
| N#Cc1ccnc(NC2CCN(Cc3ccc(-n4c(-c5cccnc5N)nc5ccc(C6CC6)nc54)cc3)CC2)n1 [Example 351, 2-((1-(4-(2-(2-Aminopyridin-3-yl)-5-cyclopropyl-3H-imidazo[4,5-b]pyridin-3-yl)benzyl)piperidin-4-yl)amino)pyrimidine-4-carbonitrile] | 15 to 60 nM |
| N#Cc1ccnc(NC2CCN(Cc3ccc(-n4c(-c5cccnc5N)nc5ccc(-c6ccc(F)cc6)nc54)cc3)CC2)n1 [Example 352, 2-((1-(4-(2-(2-Aminopyridin-3-yl)-5-(4-fluorophenyl)-3H-imidazo[4,5-b]pyridin-3-yl)benzyl)piperidin-4-yl)amino)pyrimidine-4-carbonitrile] | 15 to 60 nM |
| N#Cc1nccc(NC2CCN(Cc3ccc(-n4c(-c5cccnc5N)nc5ccc(-c6cccc(Cl)c6)nc54)cc3)CC2)n1 [Example 353, 4-((1-(4-(2-(2-Aminopyridin-3-yl)-5-(3-chlorophenyl)-3H-imidazo[4,5-b]pyridin-3-yl)benzyl)piperidin-4-yl)amino)pyrimidine-2-carbonitrile] | 60 to 600 nM |
| Cn1cc(-c2ccc3nc(-c4cccnc4N)n(-c4ccc(CN5CCN(c6nccc(C#N)n6)CC5)cc4)c3n2)ccc1=O [Example 354, 2-(4-(4-(2-(2-Aminopyridin-3-yl)-5-(1-methyl-6-oxo-1,6-dihydropyridin-3-yl)-3H-imidazo[4,5-b]pyridin-3-yl)benzyl)piperazin-1-yl)pyrimidine-4-carbonitrile] | 60 to 600 nM |
| Cn1cc(-c2ccc3nc(-c4cccnc4N)n(-c4ccc(CN5CCC(Nc6ccnc(C#N)n6)CC5)cc4)c3n2)ccc1=O [Example 355, 4-((1-(4-(2-(2-Aminopyridin-3-yl)-5-(1-methyl-6-oxo-1,6-dihydropyridin-3-yl)-3H-imidazo[4,5-b]pyridin-3-yl)benzyl)piperidin-4-yl)amino)pyrimidine-2-carbonitrile] | 15 to 60 nM |
| Cn1cc(-c2ccc3nc(-c4cccnc4N)n(-c4ccc(CN5CCC(Nc6nccc(C#N)n6)CC5)cc4)c3n2)ccc1=O [Example 356, 2-((1-(4-(2-(2-Aminopyridin-3-yl)-5-(1-methyl-6-oxo-1,6-dihydropyridin-3-yl)-3H-imidazo[4,5-b]pyridin-3-yl)benzyl)piperidin-4-yl)amino)pyrimidine-4-carbonitrile] | 60 to 600 nM |
| N#Cc1nccc(NC2CCN(Cc3ccc(-n4c(-c5cccnc5N)nc5ccc(-c6cccc(F)c6)nc54)cc3)CC2)n1 [Example 357, 4-((1-(4-(2-(2-Aminopyridin-3-yl)-5-(3-fluorophenyl)-3H-imidazo[4,5-b]pyridin-3-yl)benzyl)piperidin-4-yl)amino)pyrimidine-2-carbonitrile] | 15 to 60 nM |
| N#Cc1ccnc(NC2CCN(Cc3ccc(-n4c(-c5cccnc5N)nc5ccc(-c6cccc(F)c6)nc54)cc3)CC2)n1 [Example 358, 2-((1-(4-(2-(2-Aminopyridin-3-yl)-5-(3-fluorophenyl)-3H-imidazo[4,5-b]pyridin-3-yl)benzyl)piperidin-4-yl)amino)pyrimidine-4-carbonitrile] | 15 to 60 nM |
| Cn1ccc(-c2ccc3nc(-c4cccnc4N)n(-c4ccc(CN5CCC(Nc6ccnc(C#N)n6)CC5)cc4)c3n2)cc1=O [Example 359, 4-((1-(4-(2-(2-aminopyridin-3-yl)-5-(1-methyl-2-oxo-1,2-dihydropyridin-4-yl)-3H-imidazo[4,5-b]pyridin-3-yl)benzyl)piperidin-4-yl)amino)pyrimidine-2-carbonitrile] | < 15 nM |
| Cn1ccc(-c2ccc3nc(-c4cccnc4N)n(-c4ccc(CN5CCC(Nc6nccc(C#N)n6)CC5)cc4)c3n2)cc1=O [Example 360, 2-((1-(4-(2-(2-Aminopyridin-3-yl)-5-(1-methyl-2-oxo-1,2-dihydropyridin-4-yl)-3H-imidazo[4,5-b]pyridin-3-yl)benzyl)piperidin-4-yl)amino)pyrimidine-4-carbonitrile] | 60 to 600 nM |
